Assay results reported in the NIST ThermoML archive (doi:10.1021/je0301040).

Experiment: xn = mol fraction of the nth substance listed

FC(Cl)(Cl)Cl [trichlorofluoromethane] + FC(F)Cl
Settings	mass density [kg/m3]
298.15 K, 27634 kPa, Liquid, Pycnometric method, x1 = 0.8336	1504
298.15 K, 35295 kPa, Liquid, Pycnometric method, x1 = 0.8336	1518.86
298.15 K, 42224 kPa, Liquid, Pycnometric method, x1 = 0.8336	1531.13
298.15 K, 56475 kPa, Liquid, Pycnometric method, x1 = 0.8336	1554.44
298.15 K, 67870 kPa, Liquid, Pycnometric method, x1 = 0.8336	1570.81
305.99 K, 2209.4 kPa, Liquid, isochoric method, x1 = 0.832	1419.96
305.99 K, 2209.7 kPa, Liquid, isochoric method, x1 = 0.832	1419.96
308.99 K, 4508.6 kPa, Liquid, isochoric method, x1 = 0.832	1419.67
311.99 K, 6798.4 kPa, Liquid, isochoric method, x1 = 0.832	1419.39
311.99 K, 6800.1 kPa, Liquid, isochoric method, x1 = 0.832	1419.39
319.98 K, 1419.4 kPa, Liquid, Pycnometric method, x1 = 0.8336	1381.39
319.98 K, 2419.9 kPa, Liquid, Pycnometric method, x1 = 0.8336	1385.12
319.99 K, 690.7 kPa, Liquid, Pycnometric method, x1 = 0.8336	1378.66
319.99 K, 1087.6 kPa, Liquid, Pycnometric method, x1 = 0.8336	1380.16
319.99 K, 1721.1 kPa, Liquid, Pycnometric method, x1 = 0.8336	1382.53
319.99 K, 2054.4 kPa, Liquid, Pycnometric method, x1 = 0.8336	1383.74
319.99 K, 2726 kPa, Liquid, Pycnometric method, x1 = 0.8336	1386.19
319.99 K, 3165.8 kPa, Liquid, Pycnometric method, x1 = 0.8336	1387.81
319.99 K, 3805.2 kPa, Liquid, Pycnometric method, x1 = 0.8336	1390.08
319.99 K, 7368.4 kPa, Liquid, Pycnometric method, x1 = 0.8336	1402.12
319.99 K, 13993 kPa, Liquid, Pycnometric method, x1 = 0.8336	1422.16
319.99 K, 20936 kPa, Liquid, Pycnometric method, x1 = 0.8336	1440.83
319.99 K, 27630 kPa, Liquid, Pycnometric method, x1 = 0.8336	1456.91
319.99 K, 35180 kPa, Liquid, Pycnometric method, x1 = 0.8336	1473.5
319.99 K, 42218 kPa, Liquid, Pycnometric method, x1 = 0.8336	1486.74
319.99 K, 49603 kPa, Liquid, Pycnometric method, x1 = 0.8336	1501.44
319.99 K, 56549 kPa, Liquid, Pycnometric method, x1 = 0.8336	1513.51
319.99 K, 62595 kPa, Liquid, Pycnometric method, x1 = 0.8336	1523.41
319.99 K, 66514 kPa, Liquid, Pycnometric method, x1 = 0.8336	1534.42
325.99 K, 1939.3 kPa, Liquid, isochoric method, x1 = 0.832	1362.85
328.99 K, 3911.9 kPa, Liquid, isochoric method, x1 = 0.832	1362.59
331.99 K, 5879.8 kPa, Liquid, isochoric method, x1 = 0.832	1362.33
331.99 K, 5890.5 kPa, Liquid, isochoric method, x1 = 0.832	1362.33
349.98 K, 353.7 kPa, Gas, isochoric method, x1 = 0.832	131.816
349.98 K, 1087.3 kPa, Liquid, Pycnometric method, x1 = 0.8336	1291.23
349.98 K, 1418.4 kPa, Liquid, Pycnometric method, x1 = 0.8336	1293.05
349.98 K, 1769.1 kPa, Liquid, Pycnometric method, x1 = 0.8336	1294.97
349.98 K, 2081.3 kPa, Liquid, Pycnometric method, x1 = 0.8336	1296.63
349.98 K, 2408.9 kPa, Liquid, Pycnometric method, x1 = 0.8336	1298.31
349.98 K, 2747.4 kPa, Liquid, Pycnometric method, x1 = 0.8336	1300.08
349.98 K, 3091.9 kPa, Liquid, Pycnometric method, x1 = 0.8336	1301.88
349.98 K, 7457.3 kPa, Liquid, Pycnometric method, x1 = 0.8336	1322.34
349.98 K, 14287 kPa, Liquid, Pycnometric method, x1 = 0.8336	1349.36
349.98 K, 20907 kPa, Liquid, Pycnometric method, x1 = 0.8336	1371.66
349.98 K, 35596 kPa, Liquid, Pycnometric method, x1 = 0.8336	1412.26
349.98 K, 42532 kPa, Liquid, Pycnometric method, x1 = 0.8336	1428.61
349.98 K, 49571 kPa, Liquid, Pycnometric method, x1 = 0.8336	1443.89
349.98 K, 56566 kPa, Liquid, Pycnometric method, x1 = 0.8336	1457.8
349.98 K, 62677 kPa, Liquid, Pycnometric method, x1 = 0.8336	1469.23
349.99 K, 3577.6 kPa, Liquid, Pycnometric method, x1 = 0.8336	1304.32
349.99 K, 27703 kPa, Liquid, Pycnometric method, x1 = 0.8336	1391.72
349.99 K, 68231 kPa, Liquid, Pycnometric method, x1 = 0.8336	1479.1
351.98 K, 3607.1 kPa, Liquid, isochoric method, x1 = 0.832	1298.78
354.98 K, 5239.3 kPa, Liquid, isochoric method, x1 = 0.832	1298.54
357.98 K, 6868 kPa, Liquid, isochoric method, x1 = 0.832	1298.31
357.98 K, 6868.5 kPa, Liquid, isochoric method, x1 = 0.832	1298.31
357.98 K, 6872.5 kPa, Liquid, isochoric method, x1 = 0.832	1298.31
357.98 K, 6876.5 kPa, Liquid, isochoric method, x1 = 0.832	1298.31
374.97 K, 140.1 kPa, Fluid (supercritical or subcritical phases), Burnett expansion method, x1 = 0.832	5.9076
374.97 K, 155.55 kPa, Fluid (supercritical or subcritical phases), Burnett expansion method, x1 = 0.832	6.5788
374.97 K, 572.06 kPa, Fluid (supercritical or subcritical phases), Burnett expansion method, x1 = 0.832	25.934
374.97 K, 705.75 kPa, Fluid (supercritical or subcritical phases), Burnett expansion method, x1 = 0.832	32.8139
374.97 K, 712.23 kPa, Fluid (supercritical or subcritical phases), Burnett expansion method, x1 = 0.832	33.1519
374.97 K, 775.25 kPa, Fluid (supercritical or subcritical phases), Burnett expansion method, x1 = 0.832	36.5414
374.97 K, 2140.4 kPa, Liquid, Pycnometric method, x1 = 0.8336	1209.34
374.97 K, 2454.5 kPa, Liquid, Pycnometric method, x1 = 0.8336	1211.8
374.97 K, 2781.1 kPa, Liquid, Pycnometric method, x1 = 0.8336	1214.3
